Test results from ChEMBL document CHEMBL4000197, “Design, synthesis, biological evaluation, and molecular docking of chalcone derivatives as anti-inflammatory agents” (Bioorg Med Chem Lett, 2017).

How the values were obtained:
Mus musculus [1] = assay: Anti-inflammatory activity in para-xylene-induced Kunming mouse ear-swelling model assessed as inhibition of ear swelling at 40 mg/kg, ig measured after 1 hr relative to control; assay type: functional; settings: po
Mus musculus [2] = assay: Anti-inflammatory activity in para-xylene-induced Kunming mouse ear-swelling model assessed as inhibition of ear swelling at 5 mg/kg, ig measured after 1 hr relative to control; assay type: functional; settings: po
Mus musculus [3] = assay: Anti-inflammatory activity in para-xylene-induced Kunming mouse ear-swelling model assessed as inhibition of ear swelling at 100 mg/kg, ig measured after 1 hr relative to control; assay type: functional; settings: po
RAW264.7 [4] = assay: Anti-inflammatory activity in mouse RAW264.7 cells assessed as inhibition of LPS-induced TNF-alpha production pretreated for 2 hrs followed by LPS challenge measured after 22 hrs by ELISA; assay type: functional, cell-based
RAW264.7 [5] = assay: Anti-inflammatory activity in mouse RAW264.7 cells assessed as inhibition of LPS-induced IL-6 production pretreated for 2 hrs followed by LPS challenge measured after 22 hrs by ELISA; assay type: functional, cell-based
RAW264.7 [6] = assay: Cytotoxicity against mouse RAW264.7 cells at < 50 uM by MTT assay; assay type: cell-based

Structure (SMILES) | inhibition in vivo at 40 mg/kg (Mus musculus [1]) [%] | other results
COc1ccc(S(=O)(=O)N2CCN(c3ccc(C(=O)/C=C/c4ccccc4)cc3)CC2)cc1OC | 55.5 | –
Cc1ccc(-c2cc(C(F)(F)F)nn2-c2ccc(S(N)(=O)=O)cc2)cc1 [CELECOXIB] | – | inhibition in vivo at 5 mg/kg (Mus musculus [2]): 77%
O=C(/C=C/c1ccccc1)c1ccc(N2CCN(c3ccccc3F)CC2)cc1 | 0.57 | –
CC(C)c1cc(C(C)C)c(S(=O)(=O)N2CCN(c3ccc(C(=O)/C=C/c4ccccc4)cc3)CC2)c(C(C)C)c1 | 60.1 | –
O=C(/C=C/c1ccccc1)c1ccc(N2CCN(c3ccc(Cl)c(Cl)c3)CC2)cc1 | 13.4 | –
COc1ccc(S(=O)(=O)N2CCN(c3ccc(C(=O)/C=C/c4ccccc4)cc3)CC2)cc1 | 45.2 | –
Cc1cc(C)c(S(=O)(=O)N2CCN(c3ccc(C(=O)/C=C/c4ccccc4)cc3)CC2)c(C)c1 | 55.5 | –
COc1ccccc1N1CCN(c2ccc(C(=O)/C=C/c3ccc(Cl)cc3)cc2)CC1 | 6.13 | –
CC(=O)Oc1ccccc1C(=O)O [ASPIRIN] | – | inhibition in vivo at 100 mg/kg (Mus musculus [3]): 64.9%
O=C(/C=C/c1ccccc1)c1ccc(N2CCN(S(=O)(=O)c3ccc(Cl)cc3)CC2)cc1 | 46.8 | –
O=C(/C=C/c1ccccc1)c1ccc(N2CCN(c3cccc(C(F)(F)F)c3)CC2)cc1 | 25 | –
COc1ccc(N2CCN(c3ccc(C(=O)/C=C/c4ccc(Cl)cc4)cc3)CC2)cc1 | 55.1 | –
Cc1ccc(N2CCN(c3ccc(C(=O)/C=C/c4ccccc4)cc3)CC2)cc1 | 2.85 | –
COc1cccc(N2CCN(c3ccc(C(=O)/C=C/c4ccc(Cl)cc4)cc3)CC2)c1 | 2.28 | –
O=C(/C=C/c1ccccc1)c1ccc(N2CCN(S(=O)(=O)c3ccc(OC(F)(F)F)cc3)CC2)cc1 | 47.4 | –
O=C(/C=C/c1ccc(Cl)cc1)c1ccc(N2CCN(S(=O)(=O)c3ccc(Cl)cc3)CC2)cc1 | 56.6 | –
O=C(/C=C/c1ccccc1)c1ccc(N2CCN(S(=O)(=O)c3ccc(Br)cc3)CC2)cc1 | 47.4 | –
O=C(/C=C/c1ccccc1)c1ccc(N2CCN(S(=O)(=O)c3ccc4ccccc4c3)CC2)cc1 | 35 | –
COc1cccc(N2CCN(c3ccc(C(=O)/C=C/c4ccccc4)cc3)CC2)c1 | 16 | –

Structure (SMILES) | inhibition in vivo at 40 mg/kg (Mus musculus [1]) [%] | other results
O=C(/C=C/c1ccccc1)c1ccc(N2CCN(c3ccccc3)CC2)cc1 | 3.71 | –
COc1ccc(/C=C/C(=O)c2ccc(N3CCN(c4ccc(C)cc4C)CC3)cc2)cc1OC | 48.5 | –
O=C(/C=C/c1ccccc1)c1ccccc1 [CHALCONE] | 21.7 | –
COc1ccc(/C=C/C(=O)c2ccc(N3CCN(c4ccc(Cl)c(Cl)c4)CC3)cc2)cc1OC | 63.5 | –
Cc1ccc(N2CCN(c3ccc(C(=O)/C=C/c4ccc(Cl)cc4)cc3)CC2)c(C)c1 | 25.7 | –
O=C(/C=C/c1ccccc1)c1ccc(N2CCN(Cc3ccccc3)CC2)cc1 | 17.7 | –
O=C(/C=C/c1ccccc1)c1ccc(N2CCN(c3cccc(Cl)c3Cl)CC2)cc1 | 30.7 | –
O=C(/C=C/c1ccc(Cl)cc1)c1ccc(N2CCN(c3cccc(Cl)c3)CC2)cc1 | 5.85 | –
O=C(/C=C/c1ccccc1)c1ccc(N2CCN(c3ccc([N+](=O)[O-])cc3)CC2)cc1 | 55.4 | –
O=C(/C=C/c1ccccc1)c1ccc(N2CCN(S(=O)(=O)c3ccc(C(F)(F)F)cc3)CC2)cc1 | 47.9 | –
Cc1ccc(S(=O)(=O)N2CCN(c3ccc(C(=O)/C=C/c4ccccc4)cc3)CC2)cc1 | 30.8 | –
O=C(/C=C/c1ccccc1)c1ccc(N2CCN(c3ccccc3Cl)CC2)cc1 | 4.71 | –
COc1ccc(/C=C/C(=O)c2ccc(N3CCN(S(=O)(=O)c4ccc(Br)cc4)CC3)cc2)cc1OC | 75.5 | inhibition (RAW264.7 [4]): Dose-dependent effect; inhibition (RAW264.7 [5]): Dose-dependent effect; Activity (RAW264.7 [6]): Non-Toxic
CCCCc1ccc(S(=O)(=O)N2CCN(c3ccc(C(=O)/C=C/c4ccccc4)cc3)CC2)cc1 | 24 | –
O=C(/C=C/c1ccccc1)c1ccc(N2CCN(S(=O)(=O)c3ccccc3)CC2)cc1 | 30 | –
O=C(/C=C/c1ccc(Cl)cc1)c1ccc(N2CCN(S(=O)(=O)c3ccc(C(F)(F)F)cc3)CC2)cc1 | 59.6 | –
COc1ccc(S(=O)(=O)N2CCN(c3ccc(C(=O)/C=C/c4ccc(OC)c(OC)c4)cc3)CC2)cc1 | 64 | –
O=C(/C=C/c1ccccc1)c1ccc(N2CCN(c3cccc(Cl)c3)CC2)cc1 | 14.1 | –
Cc1ccc(N2CCN(c3ccc(C(=O)/C=C/c4ccccc4)cc3)CC2)c(C)c1 | 15 | –
